pIC50: −log10 of the molar value. Blank lines part the entries; values can stand above or below the compound they belong to.
Columns and labels:
[1] = system: mouse splenocytes; experiment: Inhibition of B Cell Activation as Measured by CD69 Expression in Mouse Splenocytes; format: cell-based; conditions: Splenocyte; C57/BL6 splenocytes, 3 ug/mL goat anti-mouse IgM, 18-20 hrs, CD69+ve cells within CD19; read-out: Mouse spleenocyte IC50
Procedure: Inhibition of B Cell Activation as Measured by CD69 Expression in Mouse Splenocytes:
To test the effect of BTK inhibitors in suppressing B-cell receptor (BCR) mediated activation of B cells, we developed a flow cytometry based assay to analyze CD69 expression in B cell population among total splenocyte from the mouse. […] Finally, cell were cultured in RPMI medium with 10% FBS.
Test compounds were diluted half log starting from 2 mM in 100% DMSO (200×). 1×10^5 splenocytes were incubated with 1 uL of diluted test compounds in 200 uL culture medium in a U-bottom 96 well plate (Greiner) at 37° C. with 5% CO2 for 30 mins. Control wells received 1 uL of 100% DMSO without any compound. The cells were stimulated with 3 ug/mL goat anti-mouse IgM (Sigma, cat#M8644) and incubated for 18-20 hrs. […] Then the cells were washed 3 times with PBS with 1% FBS and analyzed by Guava Easycyte Mini flow cytometer system (Millipore). Flow cytometry data were analyzed using Weasel software (WEHI, Melbourne). First B cells were gated using CD19 markers. Then expression of CD69 was analyzed as percentage of CD69+ve cells within CD19. Percent activity for each data point was calculated using following formula: […]
Percentage activity was fit using sigmoid dose response with variable slope logistic equation in Graph-pad Prism 5 software to determine inhibition constant 50 (IC50).

[2] = target: human Bruton's Tyrosine Kinase (Btk) (Homo sapiens (Human), UniProt Q06187); experiment: Recombinant Human Bruton's Tyrosine Kinase (Btk) Inhibition Assay (HTRF KinEASE-TK); format: biochemical; conditions: 20 ng/ml rhBtk, 77 μM ATP (KM), 1 μM TK-Biotin substrate, 90 min; read-out: hBTK IC50
Chain of human Bruton's Tyrosine Kinase (Btk) (Q06187 whole entry): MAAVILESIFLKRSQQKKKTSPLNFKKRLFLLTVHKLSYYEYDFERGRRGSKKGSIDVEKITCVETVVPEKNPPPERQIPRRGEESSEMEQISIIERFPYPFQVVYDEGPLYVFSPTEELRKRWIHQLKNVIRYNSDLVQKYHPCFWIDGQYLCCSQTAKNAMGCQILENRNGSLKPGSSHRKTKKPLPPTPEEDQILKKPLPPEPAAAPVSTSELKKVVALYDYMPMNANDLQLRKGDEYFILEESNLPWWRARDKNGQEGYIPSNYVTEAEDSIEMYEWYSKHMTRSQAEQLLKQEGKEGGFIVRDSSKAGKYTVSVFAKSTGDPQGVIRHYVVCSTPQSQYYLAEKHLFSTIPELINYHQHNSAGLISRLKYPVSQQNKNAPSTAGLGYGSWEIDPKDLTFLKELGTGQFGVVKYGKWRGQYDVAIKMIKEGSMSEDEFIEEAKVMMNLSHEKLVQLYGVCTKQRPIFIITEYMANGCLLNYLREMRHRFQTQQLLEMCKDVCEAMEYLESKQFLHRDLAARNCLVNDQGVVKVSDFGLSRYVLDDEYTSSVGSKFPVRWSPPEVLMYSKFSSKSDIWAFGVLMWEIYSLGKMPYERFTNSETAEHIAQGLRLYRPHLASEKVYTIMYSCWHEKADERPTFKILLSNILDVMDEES

SMILES: Cc1c(-c2ncnc3[nH]c(-c4ccc(N5CCN(C)CC5)cc4)cc23)cccc1N1CCOc2cc(C3CC3)ccc2C1=O [Example C-3, 8-cyclopropyl-4-[2-methyl-3-[6-[4-(4-methylpiperazin-1-yl)phenyl]-7H-pyrrolo[2,3-d]pyrimidin-4-yl]phenyl]-2,3-dihydro-1,4-benzoxazepin-5-one]
pIC50 [1]: 6.76 | pIC50 [2]: 7.68

SMILES: CN1CCOC(c2ccc(-c3cc4c(-c5cccc(N6CCOc7cc(C8CC8)ccc7C6=O)c5CO)ccnc4[nH]3)cc2)C1 (centres unmarked) [Example C-5, 8-cyclopropyl-4-[2-(hydroxymethyl)-3-[2-[4-(4-methylmorpholin-2-yl)phenyl]-1H-pyrrolo[2,3-b]pyridin-4-yl]phenyl]-2,3-dihydro-1,4-benzoxazepin-5-one]
pIC50 [1]: 6.90 | pIC50 [2]: 8.52

SMILES: CN1CCC(n2cc(-c3cc4c(-c5cccc(N6CCOc7cc(C8CC8)ccc7C6=O)c5CO)ncnc4[nH]3)cn2)CC1 [Example D-1, 8-cyclopropyl-4-[2-(hydroxymethyl)-3-[6-[1-(1-methyl-4-piperidyl)pyrazol-4-yl]-7H-pyrrolo[2,3-d]pyrimidin-4-yl]phenyl]-2,3-dihydro-1,4-benzoxazepin-5-one]
pIC50 [1]: 7.49 | pIC50 [2]: 8.22

SMILES: CN1CCC(n2cc(-c3cc4c(-c5cccc(-n6ccc7cc(C8CC8)ccc7c6=O)c5CO)ncnc4[nH]3)cn2)CC1 [Example D-3, 6-cyclopropyl-2-[2-(hydroxymethyl)-3-[6-[1-(1-methyl-4-piperidyl)pyrazol-4-yl]-7H-pyrrolo[2,3-d]pyrimidin-4-yl]phenyl]isoquinolin-1-one]
pIC50 [1]: 7.37 | pIC50 [2]: 8.30

SMILES: CN1CCC(c2ccc(-c3cc4c(-c5cccc(-n6ccc7cc(C8CC8)ccc7c6=O)c5CO)ncnc4[nH]3)cc2)CC1 [Example D-4, 6-cyclopropyl-2-[2-(hydroxymethyl)-3-[6-[4-(1-methyl-4-piperidyl)phenyl]-7H-pyrrolo[2,3-d]pyrimidin-4-yl]phenyl]isoquinolin-1-one]
pIC50 [1]: 7.72 | pIC50 [2]: 8.52

SMILES: CN1CCC(n2cc(-c3cc4c(-c5cccc(N6CCOc7cc(C8CC8)ccc7C6=O)c5CO)ccnc4[nH]3)cn2)CC1 [Example D-5, 8-cyclopropyl-4-[2-(hydroxymethyl)-3-[2-[1-(1-methyl-4-piperidyl)pyrazol-4-yl]-1H-pyrrolo[2,3-b]pyridin-4-yl]phenyl]-2,3-dihydro-1,4-benzoxazepin-5-one]
pIC50 [1]: 7.42 | pIC50 [2]: 8.30

SMILES: CN1CCCC(n2cc(-c3cc4c(-c5cccc(N6CCOc7cc(C8CC8)ccc7C6=O)c5CO)ncnc4[nH]3)cn2)C1 [Example D-6, 8-cyclopropyl-4-[2-(hydroxymethyl)-3-[6-[1-(1-methyl-3-piperidyl)pyrazol-4-yl]-7H-pyrrolo[2,3-d]pyrimidin-4-yl]phenyl]-2,3-dihydro-1,4-benzoxazepin-5-one]
pIC50 [1]: 7.28 | pIC50 [2]: 8.30

SMILES: CN1CC(n2cc(-c3cc4c(-c5cccc(N6CCOc7cc(C8CC8)ccc7C6=O)c5CO)ccnc4[nH]3)cn2)C1 [Example D-7, 8-cyclopropyl-4-[2-(hydroxymethyl)-3-[2-[1-(1-methylazetidin-3-yl)pyrazol-4-yl]-1H-pyrrolo[2,3-b]pyridin-4-yl]phenyl]-2,3-dihydro-1,4-benzoxazepin-5-one]
pIC50 [1]: 7.37 | pIC50 [2]: 8.40

SMILES: CC(C)N1CC(n2cc(-c3cc4c(-c5cccc(N6CCOc7cc(C8CC8)ccc7C6=O)c5CO)ccnc4[nH]3)cn2)C1 [Example D-8, 8-cyclopropyl-4-[2-(hydroxymethyl)-3-[2-[1-(1-isopropylazetidin-3-yl)pyrazol-4-yl]-1H-pyrrolo[2,3-b]pyridin-4-yl]phenyl]-2,3-dihydro-1,4-benzoxazepin-5-one]
pIC50 [1]: 7.01 | pIC50 [2]: 8.19

SMILES: CN1CCC(n2cc(-c3cc4c(-c5cccc(-n6ncc7cc(C8CC8)ccc7c6=O)c5CO)ncnc4[nH]3)cn2)CC1 [Example D-9]
pIC50 [1]: 7.48 | pIC50 [2]: 8.70

SMILES: CN1CCN(c2ccc(-c3cc4c(-c5cccc(N6CCOc7cc(C8CC8)ccc7C6=O)c5CO)ccnc4[nH]3)cn2)CC1 [Example D-11, 8-cyclopropyl-4-[2-(hydroxymethyl)-3-[2-[6-(4-methylpiperazin-1-yl)-3-pyridyl]-1H-pyrrolo[2,3-b]pyridin-4-yl]phenyl]-2,3-dihydro-1,4-benzoxazepin-5-one]
pIC50 [1]: 7.10 | pIC50 [2]: 7.85

SMILES: CC(C)N1CC(Oc2ccc(-c3cc4c(-c5cccc(N6CCOc7cc(C8CC8)ccc7C6=O)c5CO)ccnc4[nH]3)cn2)C1 [Example D-12, 8-cyclopropyl-4-[2-(hydroxymethyl)-3-[2-[6-(1-isopropylazetidin-3-yl)oxy-3-pyridyl]-1H-pyrrolo[2,3-b]pyridin-4-yl]phenyl]-2,3-dihydro-1,4-benzoxazepin-5-one]
pIC50 [1]: 6.58 | pIC50 [2]: 7.96

SMILES: CCN1CCC(n2cc(-c3cc4c(-c5cccc(-n6ncc7cc(C8CC8)ccc7c6=O)c5CO)ncnc4[nH]3)cn2)CC1 [Example D-13, 6-cyclopropyl-2-[3-[6-[1-(1-ethyl-4-piperidyl)pyrazol-4-yl]-7H-pyrrolo[2,3-d]pyrimidin-4-yl]-2-(hydroxymethyl)phenyl]phthalazin-1-one]
pIC50 [1]: 7.19 | pIC50 [2]: 8.52

SMILES: O=C1c2c(F)cc(C3CC3)cc2OCCN1c1cccc(-c2ccnc3[nH]c(-c4cnn(C5CCN(C6COC6)CC5)c4)cc23)c1CO [Example D-14, 8-cyclopropyl-6-fluoro-4-[2-(hydroxymethyl)-3-[2-[1-[1-(oxetan-3-yl)-4-piperidyl]pyrazol-4-yl]-1H-pyrrolo[2,3-b]pyridin-4-yl]phenyl]-2,3-dihydro-1,4-benzoxazepin-5-one]
pIC50 [1]: 8.10 | pIC50 [2]: 8.77

SMILES: O=C1c2ccc(C3CC3)cc2OCCN1c1cccc(-c2ccnc3[nH]c(-c4cnn(C5COC5)c4)cc23)c1CO [Example F-1, 8-cyclopropyl-4-[2-(hydroxymethyl)-3-[2-[1-(oxetan-3-yl)pyrazol-4-yl]-1H-pyrrolo[2,3-b]pyridin-4-yl]phenyl]-2,3-dihydro-1,4-benzoxazepin-5-one]
pIC50 [1]: 7.15 | pIC50 [2]: 8.52

Further lines, results first:

pIC50 [1]: 7.04 | pIC50 [2]: 8.42
SMILES: CC1(O)CCC(n2cc(-c3cc4c(-c5cccc(N6CCOc7cc(C8CC8)ccc7C6=O)c5CO)ccnc4[nH]3)cn2)CC1 (centres unmarked) [Example F-3, 8-cyclopropyl-4-[2-(hydroxymethyl)-3-[2-[1-(4-hydroxy-4-methyl-cyclohexyl)pyrazol-4-yl]-1H-pyrrolo[2,3-b]pyridin-4-yl]phenyl]-2,3-dihydro-1,4-benzoxazepin-5-one]

pIC50 [1]: 7.29 | pIC50 [2]: 8.52
SMILES: CN1CCC(Oc2ccc(-c3cc4c(-c5cccc(N6CCOc7cc(C8CC8)ccc7C6=O)c5CO)ncnc4[nH]3)cc2)CC1 [Example G-1, 8-cyclopropyl-4-[2-(hydroxymethyl)-3-[6-[4-[(1-methyl-4-piperidyl)oxy]phenyl]-7H-pyrrolo[2,3-d]pyrimidin-4-yl]phenyl]-2,3-dihydro-1,4-benzoxazepin-5-one]

pIC50 [1]: 7.27 | pIC50 [2]: 8.30
SMILES: CN1CC(Oc2ccc(-c3cc4c(-c5cccc(N6CCOc7cc(C8CC8)ccc7C6=O)c5CO)ncnc4[nH]3)cc2)C1 [Example G-2, 8-cyclopropyl-4-[2-(hydroxymethyl)-3-[6-[4-(1-methylazetidin-3-yl)oxyphenyl]-7H-pyrrolo[2,3-d]pyrimidin-4-yl]phenyl]-2,3-dihydro-1,4-benzoxazepin-5-one]

pIC50 [1]: 7.85 | pIC50 [2]: 8.30
SMILES: CN1CCN(Cc2ccc(-c3cc4c(-c5cccc(N6CCOc7cc(C8CC8)ccc7C6=O)c5CO)ccnc4[nH]3)nc2)CC1 [Example I-1, 8-cyclopropyl-4-[2-(hydroxymethyl)-3-[2-[5-[(4-methylpiperazin-1-yl)methyl]-2-pyridyl]-1H-pyrrolo[2,3-b]pyridin-4-yl]phenyl]-2,3-dihydro-1,4-benzoxazepin-5-one]

pIC50 [1]: 8.30 | pIC50 [2]: 9.00
SMILES: CN1CCN(Cc2ccc(-c3cc4c(-c5cccc(N6CCOc7cc(C8CC8)cc(F)c7C6=O)c5CO)ccnc4[nH]3)nc2)CC1 [Example I-2, 8-cyclopropyl-6-fluoro-4-[2-(hydroxymethyl)-3-[2-[5-[(4-methylpiperazin-1-yl)methyl]-2-pyridyl]-1H-pyrrolo[2,3-b]pyridin-4-yl]phenyl]-2,3-dihydro-1,4-benzoxazepin-5-one]

pIC50 [1]: 7.64 | pIC50 [2]: 8.70
SMILES: CCN1CCN(Cc2ccc(-c3cc4c(-c5cccc(N6CCOc7cc(C8CC8)ccc7C6=O)c5CO)ccnc4[nH]3)nc2)CC1 [Example I-4, 8-cyclopropyl-4-[3-[2-[5-[(4-ethylpiperazin-1-yl)methyl]-2-pyridyl]-1H-pyrrolo[2,3-b]pyridin-4-yl]-2-(hydroxymethyl)phenyl]-2,3-dihydro-1,4-benzoxazepin-5-one]

pIC50 [1]: 7.52 | pIC50 [2]: 8.52
SMILES: O=C1c2ccc(C3CC3)cc2OCCN1c1cccc(-c2ccnc3[nH]c(-c4ccc(CN5CCN(C6CC6)CC5)cn4)cc23)c1CO [Example I-5, 8-cyclopropyl-4-[3-[2-[5-[(4-cyclopropylpiperazin-1-yl)methyl]-2-pyridyl]-1H-pyrrolo[2,3-b]pyridin-4-yl]-2-(hydroxymethyl)phenyl]-2,3-dihydro-1,4-benzoxazepin-5-one]

Source: US9233983B2, “Substituted hetero-bicyclic compounds, compositions and medicinal applications thereof” (ADVINUS THERAPEUTICS LIMITED, priority 2012, dated 2016)
